In US20040029172A1, “Generation of combinatorial libraries and assessment thereof by deconvolution” (priority 2000, published 2004):

Biological target: Concanavalin A (Canavalia ensiformis, UniProt P02866)
Conditions: FIG. 5; complete library 2:1-6 and 2:A-I
Description: Concanavalin A and all reagents were obtained from common commercial sources (Lancaster, Fluka, Aldrich, Bachem, Sigma). […] The binding effect of the equilibrated mixtures was determined using competitive inhibition of enzyme-labelled concanavalin A, and were carried out using a Victor microtiter plate reader.
The complete library (CL) was designed to contain near equal amounts of each final species at a concentration of approximately 12 μM. The final solution contained 2.5 mM of each carbohydrate aldehyde (2:1-6), and varying amounts of hydrazides: 2:A, 70 μM; 2:B-E, 0.24 mM; 2:F, 0.42 mM; 2:G, 0.65 mM; 2:H, 0.88 mM; 2:I, 2.5 mM. The mixture was made in ammonium formate buffer at pH 4.0, and was equilibrated at ambient temperature for one week to ensure full reaction.
The different sublibraries (SL1-SLI) were prepared under identical conditions, where one component (2:1-6, 2:A-I) was removed from the mixture each time. Aliquots of the solution were subsequently taken out to test the inhibitory activity on Concanavalin A.

## O=Cc1ccc(OC2OC(CO)C(O)C(O)C2O)cc1 (stereo not shown) [2:6]
  effect on Con A binding when the component is removed from the complete library: largest effects
